≈ marks a conversion by molar mass, not a printed value.

Assay [1] can be described thus: Selectivity ratio of IC50 for human THP1 cells to MIC for isoniazid-, rifampin-, amikacin-, OLF-resistant Mycobacterium tuberculosis isolate J. In kind it is functional, THP-1.
Assay [2] can be described thus: Selectivity ratio of IC50 for human THP1 cells to MIC for isoniazid-, rifampin-resistant Mycobacterium tuberculosis isolate D. In kind it is functional, THP-1.
Assay [3] can be described thus: Selectivity ratio of IC50 for human THP1 cells to MIC for isoniazid-, rifampin-,streptomycin-resistant Mycobacterium tuberculosis isolate E. Format: functional, THP-1.
The subject of assay [4] is Mycobacterium tuberculosis. Nature of the assay: Antituberculosis activity against isoniazid-resistant Mycobacterium tuberculosis isolate B. Format: functional.
Assay [5] deals with Mycobacterium tuberculosis. Nature of the assay: Antituberculosis activity against isoniazid-resistant Mycobacterium tuberculosis isolate C. In kind it is functional.
Assay [6] concerns Mycobacterium tuberculosis. Nature of the assay: Antituberculosis activity against isoniazid-, rifampin-resistant Mycobacterium tuberculosis isolate D. Format: functional.
Assay [7] relates to Mycobacterium tuberculosis. Nature of the assay: Antituberculosis activity against isoniazid-, rifampin-,streptomycin-resistant Mycobacterium tuberculosis isolate E. Format: functional.
Assay [8] concerns Mycobacterium tuberculosis. Nature of the assay: Antituberculosis activity against isoniazid-, rifampin-,ethambutol-resistant Mycobacterium tuberculosis isolate F. In kind it is functional.
In assay [9] the test system is Mycobacterium tuberculosis. Nature of the assay: Antituberculosis activity against isoniazid-, rifampin-,ethambutol-resistant Mycobacterium tuberculosis isolate G. In kind it is functional.
Assay [10] has as its system Mycobacterium tuberculosis. In words: Antituberculosis activity against isoniazid-, rifampin-, amikacin-, OLF-resistant Mycobacterium tuberculosis isolate H. In kind it is functional.
For assay [11], the system named is Mycobacterium tuberculosis. In words: Antituberculosis activity against isoniazid-, rifampin-,kanamycin-,OLF-resistant Mycobacterium tuberculosis isolate I. In kind it is functional.
Assay [12] deals with Mycobacterium tuberculosis. In words: Antituberculosis activity against isoniazid-, rifampin-, amikacin-, OLF-resistant Mycobacterium tuberculosis isolate J. In kind it is functional.
The nature of assay [13]: Selectivity ratio of IC50 for human THP1 cells to MIC for INH-resistant Mycobacterium tuberculosis isolate B. In kind it is functional, THP-1.
Assay [14] is described as follows: Selectivity ratio of IC50 for human THP1 cells to MIC for INH-resistant Mycobacterium tuberculosis isolate C. Format: functional, THP-1.
Assay [15] in a line: Selectivity ratio of IC50 for human THP1 cells to MIC for isoniazid-, rifampin-,ethambutol-resistant Mycobacterium tuberculosis isolate F. Format: functional, THP-1.
Assay [16] can be described thus: Selectivity ratio of IC50 for human THP1 cells to MIC for isoniazid-, rifampin-,ethambutol-resistant Mycobacterium tuberculosis isolate G. In kind it is functional, THP-1.
Assay [17] in a line: Selectivity ratio of IC50 for human THP1 cells to MIC for isoniazid-, rifampin-, amikacin-, OLF-resistant Mycobacterium tuberculosis isolate H. Format: functional, THP-1.
Assay [18] in a line: Selectivity ratio of IC50 for human THP1 cells to MIC for isoniazid-, rifampin-,kanamycin-,OLF-resistant Mycobacterium tuberculosis isolate I. In kind it is functional, THP-1.

Take `Cc1ccnc(NC(=O)NS(=O)(=O)c2cc(NC(=O)CCl)ccc2Cl)n1`: the Selectivity ratio in assay [1], in assay [2], in [3], in [13], in [14] and in assay [15] was 10 throughout. Also, the Selectivity ratio in [16], in assay [17] and in [18] was 10 in each case. Further, the MIC in assay [4], in [5], in [6], in [7], in assay [8] and in assay [9] was 10 µg/mL (≈ 23.9 µM) in each case. Also, the minimal inhibitory concentration (MIC) in assay [10], in assay [11] and in assay [12] was 10 µg/mL (≈ 23.9 µM) in each case.
For the molecule `COc1ccnc(NC(=O)NS(=O)(=O)c2cc(NC(=O)CCl)ccc2Cl)n1`, the Selectivity ratio in assay [1], in assay [2], in assay [3], in [13], in assay [14] and in [15] was 10 each time. Also, the Selectivity ratio in assay [16], in assay [17] and in assay [18] was 10 throughout. The MIC in assay [4], in [5], in [6], in assay [7], in assay [8] and in assay [9] was 10 µg/mL (≈ 23 µM) throughout. Further, the MIC in assay [10], in [11] and in assay [12] was 10 µg/mL (≈ 23 µM) in each case.

As a reminder, the MIC is the lowest concentration found to suppress growth. A low value points to a more susceptible organism.

Source of the values: ChEMBL document CHEMBL1949543, “Synthesis and evaluation of novel monosubstituted sulfonylurea derivatives as antituberculosis agents” (Eur J Med Chem, 2012).
